Test results reported in ChEMBL document CHEMBL4840359, “N-Terminus to Arginine Side-Chain Cyclization of Linear Peptidic Neuropeptide Y Y4 Receptor Ligands Results in Picomolar Binding Constants” (J Med Chem, 2021).
Residues, ends and D or L forms follow the SMILES beside them.

Tests used:
[1] = Stability in human plasma assessed as intact peptide measured after 30 mins at 37 degC by RP-HPLC analysis; format: ADME, cell-free; details: read-out: Stability
[2] = Stability in human plasma assessed as intact peptide in presence of rami-pril measured at 50 uM after 24 hrs at 37 degC by LC-HRMS analysis; format: ADME, cell-free
Homo sapiens [3] = species: Homo sapiens; assay: Selectivity ratio, Ki for displacement of [3H]UR-MK299 from human neuropeptide Y Y1 receptor in human SK-N-MC cells measured after 90 mins by scintillation counting analysis to Ki for displacement of [3H]UR-KK200 from human neuropeptide Y Y4 receptor expressed in CHO-mtAEQ cells co-expressing Gqi5 measured after 90 mins by scintillation counting analysis; format: cell-based
Homo sapiens [4] = species: Homo sapiens; assay: Selectivity ratio, Ki for displacement of [3H]UR-MK299 from human neuropeptide Y Y2 receptor expressed in CHO cells measured after 90 mins by scintillation counting analysis to Ki for displacement of [3H]UR-KK200 from human neuropeptide Y Y4 receptor expressed in CHO-mtAEQ cells co-expressing Gqi5 measured after 90 mins by scintillation counting analysis; format: cell-based
Homo sapiens [5] = species: Homo sapiens; assay: Selectivity ratio, Ki for displacement of [3H]propionyl-pNPY from human neuropeptide Y Y5 receptor in human HEC-1B cells measured after 90 mins by scintillation counting analysis to Ki for displacement of [3H]UR-KK200 from human neuropeptide Y Y4 receptor expressed in CHO-mtAEQ cells co-expressing Gqi5 measured after 90 mins by scintillation counting analysis; format: cell-based
[6] = target: T1, Neuropeptide Y receptor type 1 (Homo sapiens, UniProt P25929); assay: Displacement of [3H]UR-MK299 from human neuropeptide Y Y1 receptor in human SK-N-MC cells measured after 90 mins by scintillation counting analysis; format: cell-based
T1 sequence (P25929 whole entry): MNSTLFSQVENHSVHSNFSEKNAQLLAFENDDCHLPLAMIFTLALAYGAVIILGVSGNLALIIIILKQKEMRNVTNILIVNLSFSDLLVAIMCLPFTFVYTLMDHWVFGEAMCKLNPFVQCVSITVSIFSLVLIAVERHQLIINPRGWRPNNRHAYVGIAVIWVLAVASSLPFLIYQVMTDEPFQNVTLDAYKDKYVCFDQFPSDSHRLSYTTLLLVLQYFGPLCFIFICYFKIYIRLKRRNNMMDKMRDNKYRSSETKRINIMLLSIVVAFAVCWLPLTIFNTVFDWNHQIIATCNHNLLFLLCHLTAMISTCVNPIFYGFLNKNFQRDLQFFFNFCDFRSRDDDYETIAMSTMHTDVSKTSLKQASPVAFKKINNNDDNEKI

[7] = Stability in human plasma assessed as intact peptide measured after 2 hr at 37 degC by RP-HPLC analysis; format: ADME, cell-free; details: read-out: Stability
[8] = target: T2, Neuropeptide Y receptor type 4 (Homo sapiens, UniProt P50391); assay: Intrinsic activity at human neuropeptide Y Y4 receptor expressed in HEK293T-ARRB2 cells assessed as stimulation of beta-arrestin 2 recruitment by multimode plate reader relative to hPP; format: functional, cell-based
T2 sequence (P50391 whole entry): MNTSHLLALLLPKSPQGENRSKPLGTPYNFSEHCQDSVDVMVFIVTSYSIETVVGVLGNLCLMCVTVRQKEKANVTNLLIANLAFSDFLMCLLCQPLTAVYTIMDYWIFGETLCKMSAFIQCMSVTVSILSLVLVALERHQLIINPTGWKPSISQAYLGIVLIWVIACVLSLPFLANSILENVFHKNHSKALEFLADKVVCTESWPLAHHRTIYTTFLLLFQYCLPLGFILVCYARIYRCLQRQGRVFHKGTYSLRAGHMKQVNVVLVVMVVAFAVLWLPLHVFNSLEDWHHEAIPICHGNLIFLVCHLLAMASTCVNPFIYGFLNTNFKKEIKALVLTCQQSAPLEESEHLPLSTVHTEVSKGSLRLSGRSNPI

[9] = target: T2, Neuropeptide Y receptor type 4; assay: Agonist activity at human neuropeptide Y Y4 receptor expressed in HEK293T-ARRB1 cells assessed as stimulation of beta-arrestin 1 recruitment by multimode plate reader; format: functional, cell-based; details: read-out: EC50
[10] = target: T2, Neuropeptide Y receptor type 4; assay: Intrinsic activity at human neuropeptide Y Y4 receptor expressed in CHO-mtAEQ cells co-expressing Gqi5 by calcium aequorin assay; format: functional, cell-based
[11] = Stability of the compound in pH 7.4 PBS buffer measured up to 48 hrs by reversed-phase HPLC analysis; format: physicochemical; details: pH 7.4, 48 h
[12] = target: T2, Neuropeptide Y receptor type 4; assay: Agonist activity at human neuropeptide Y Y4 receptor expressed in CHO-mtAEQ cells co-expressing Gqi5 by calcium aequorin assay; format: functional, cell-based
[13] = Stability in human plasma assessed as half life at 37 degC by RP-HPLC analysis; format: ADME, cell-free
[14] = target: T3, Neuropeptide Y receptor type 2 (Homo sapiens, UniProt P49146); assay: Displacement of [3H]UR-MK299 from human neuropeptide Y Y2 receptor expressed in CHO cells measured after 90 mins by scintillation counting analysis; format: cell-based
T3 sequence (P49146 whole entry): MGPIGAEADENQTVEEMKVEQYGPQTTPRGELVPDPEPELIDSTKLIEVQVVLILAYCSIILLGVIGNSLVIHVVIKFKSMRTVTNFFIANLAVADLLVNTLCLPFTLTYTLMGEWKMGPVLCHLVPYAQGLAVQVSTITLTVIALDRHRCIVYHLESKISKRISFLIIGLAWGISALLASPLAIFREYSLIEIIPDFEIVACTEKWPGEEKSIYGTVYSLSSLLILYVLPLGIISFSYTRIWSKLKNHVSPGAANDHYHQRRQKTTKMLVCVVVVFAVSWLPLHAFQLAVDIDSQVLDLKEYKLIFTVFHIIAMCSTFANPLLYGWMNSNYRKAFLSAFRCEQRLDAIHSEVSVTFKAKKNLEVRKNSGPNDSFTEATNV

[15] = Stability in human plasma assessed as intact peptide measured after 1 hr at 37 degC by RP-HPLC analysis; format: ADME, cell-free; details: read-out: Stability
[16] = target: T2, Neuropeptide Y receptor type 4; assay: Intrinsic activity at human neuropeptide Y Y4 receptor expressed in HEK293T cells co-expressing CRE-controlled gene reporter firefly luciferase assessed as relative luminescence measured after 15 mins relative to hPP; format: functional, cell-based
[17] = target: T2, Neuropeptide Y receptor type 4; assay: Displacement of [3H]UR-KK200 from human neuropeptide Y Y4 receptor expressed in CHO-mtAEQ cells co-expressing Gqi5 assessed as fold change in affinity measured after 90 mins by scintillation counting analysis relative to Ac-Arg-Tyr-Arg-Leu-Arg-Tyr-NH2; format: cell-based; details: filed as agonist
[18] = target: T2, Neuropeptide Y receptor type 4; assay: Agonist activity at human neuropeptide Y Y4 receptor expressed in HEK293T-ARRB2 cells assessed as stimulation of beta-arrestin 2 recruitment by multimode plate reader; format: functional, cell-based
[19] = target: T2, Neuropeptide Y receptor type 4; assay: Displacement of [3H]UR-KK200 from human neuropeptide Y Y4 receptor expressed in CHO-mtAEQ cells co-expressing Gqi5 measured after 90 mins by scintillation counting analysis; format: cell-based
[20] = Stability in human plasma assessed as intact peptide measured after 6 hr at 37 degC by RP-HPLC analysis; format: ADME, cell-free; details: read-out: Stability
[21] = target: T4, Neuropeptide Y receptor type 5 (Homo sapiens, UniProt Q15761); assay: Displacement of [3H]propionyl-pNPY from human neuropeptide Y Y5 receptor in human HEC-1B cells measured after 90 mins by scintillation counting analysis; format: cell-based, HEC-1B cell line
T4 sequence (Q15761 whole entry): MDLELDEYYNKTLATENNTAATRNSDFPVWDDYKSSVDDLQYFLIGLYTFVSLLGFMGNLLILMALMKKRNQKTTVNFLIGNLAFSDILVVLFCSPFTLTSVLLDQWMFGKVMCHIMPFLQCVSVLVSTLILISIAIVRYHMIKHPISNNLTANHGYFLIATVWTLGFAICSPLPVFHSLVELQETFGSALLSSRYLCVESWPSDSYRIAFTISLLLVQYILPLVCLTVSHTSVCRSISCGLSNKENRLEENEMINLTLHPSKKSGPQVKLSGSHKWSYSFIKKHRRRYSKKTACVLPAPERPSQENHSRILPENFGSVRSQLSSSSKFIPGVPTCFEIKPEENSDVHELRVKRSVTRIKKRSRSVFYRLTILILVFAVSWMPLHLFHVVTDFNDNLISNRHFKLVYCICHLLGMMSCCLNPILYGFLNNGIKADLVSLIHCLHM

[22] = target: T2, Neuropeptide Y receptor type 4; assay: Intrinsic activity at human neuropeptide Y Y4 receptor expressed in HEK293T-ARRB1 cells assessed as stimulation of beta-arrestin 1 recruitment by multimode plate reader relative to hPP; format: functional, cell-based
[23] = target: T2, Neuropeptide Y receptor type 4; assay: Agonist activity at human neuropeptide Y Y4 receptor expressed in HEK293T cells co-expressing CRE-controlled gene reporter firefly luciferase assessed as relative luminescence measured after 15 mins; format: functional, cell-based

Structure (SMILES)	remaining at 0.5 h [1] [%]	Selectivity ratio (Homo sapiens [3])	Selectivity ratio (Homo sapiens [4])	Selectivity ratio (Homo sapiens [5])	Ki ([6]; read-out: pKi (converted)) [nM]	remaining at 2 h [7] [%]	Intrinsic activity [8] [%]	EC50 [9] [nM]	Intrinsic activity [10] [%]	EC50 [12] [nM]	half-life [13] [h]	Ki ([14]; read-out: Ki) [nM]	Ki ([14]; read-out: pKi (converted)) [nM]	remaining at 1 h [15] [%]	fold change (FC) [17]	EC50 [18] [nM]	Ki ([19]; read-out: Ki) [nM]	remaining at 6 h [20] [%]	Ki ([21]; read-out: pKi (converted)) [nM]	Intrinsic activity [22] [%]	further results
CC(C)C[C@H](NC(=O)[C@@H]1CCCNC(=N)NC(=O)NCCCCNC(=O)CCC(=O)N[C@@H](CCCNC(=N)N)C(=O)N[C@@H](Cc2ccc(O)cc2)C(=O)N1)C(=O)N[C@@H](CCCNC(=N)N)C(=O)N[C@@H](Cc1ccc(O)cc1)C(N)=O	> 99	> 60000	> 200	> 60000	> 3160	52	73	3.6	82	2.69	1.9	> 10000	> 10000	85	71	1.58	0.048	3	> 1000	68	Stability [2]: Stable; Ki ([6]; read-out: Ki): > 3000 nM; Stability [11]: Stable; Intrinsic activity [16]: 89%; Ki ([19]; read-out: pKi (converted)): 0.0437 nM; Ki ([21]; read-out: Ki): > 3000 nM
CC(C)C[C@H](NC(=O)[C@@H]1CCCNC(=N)NC(=O)NCCCCNC(=O)CCC(=O)N[C@@H](CCCNC(=N)N)C(=O)N[C@@H](Cc2c[nH]c3ccccc23)C(=O)N1)C(=O)N[C@@H](CCCNC(=N)N)C(=O)N[C@@H](Cc1ccc(O)cc1)C(N)=O	94	> 300000	> 300	> 90000	> 10000	57	80	1	84	1	2.6	> 10000	> 10000	87	103	1.66	0.033	19	> 1000	98	Stability [2]: Stable; Ki ([6]; sk-n-mc, read-out: Ki): > 10000 nM; EC50 [23]: 1.41 nM; Stability [11]: Stable; Intrinsic activity [16]: 95%; Ki ([21]; read-out: Ki): > 3000 nM
CC(=O)N[C@@H](CCCNC(=N)N)C(=O)N[C@@H](Cc1ccc(O)cc1)C(=O)N[C@@H](CCCN/C(N)=N/C(=O)NCCCCN)C(=O)N[C@@H](CC(C)C)C(=O)N[C@@H](CCCNC(=N)N)C(=O)N[C@@H](Cc1ccc(O)cc1)C(N)=O (HELM PEPTIDE1{[ac].R.Y.[NCCCCNC(=O)/N=C(\N)NCCC[C@H](N[*:1])C(=O)[*:2]].L.R.Y.[am]}$$$$V2.0)	> 99	–	–	–	–	38	–	–	–	–	1.7	–	–	77	–	–	–	9	–	–	–
CC(C)C[C@H](NC(=O)[C@@H]1CCCNC(=N)NC(=O)NCCCNC(=O)CCC(=O)N[C@@H](CCCNC(=N)N)C(=O)N[C@@H](Cc2ccc(O)cc2)C(=O)N1)C(=O)N[C@@H](CCCNC(=N)N)C(=O)N[C@@H](Cc1ccc(O)cc1)C(N)=O	–	> 76000	> 23000	> 23000	> 10000	–	87	3.5	83	15.1	–	> 3000	> 3160	–	26	5.37	0.13	–	> 1000	90	Ki ([19]; read-out: pKi (converted)): 0.117 nM; Ki ([21]; read-out: Ki): > 3000 nM
N=C(N)NCCC[C@@H]1NC(=O)CCC(=O)NCCCCNC(=O)NC(=N)NCCC[C@@H](C(=O)N[C@@H](Cc2c[nH]c3ccccc23)C(=O)N[C@@H](CCCNC(=N)N)C(=O)N[C@@H](Cc2ccc(O)cc2)C(N)=O)NC(=O)[C@H](Cc2ccc(O)cc2)NC1=O (HELM PEPTIDE1{R.Y.[N=C(NCCC[C@H](N[*:1])C(=O)[*:2])N[*:3]].W.R.Y.[am]}|CHEM1{[O=C(CCC(=O)[*:1])NCCCCNC(=O)[*:2]]}$PEPTIDE1,CHEM1,1:R1-1:R1|PEPTIDE1,CHEM1,3:R3-1:R2$$$V2.0)	–	> 1800	> 6200	> 6200	> 10000	–	83	130	61	191	–	> 10000	> 10000	–	2.1	95.5	1.6	–	> 10000	84	Ki ([6]; read-out: Ki): > 3000 nM; Ki ([21]; hec-1b cell line, read-out: Ki): > 10000 nM
